Counter-ions that a name gives are not always drawn.
How the values were obtained:
[1] = test system: sciatic nerve of SD rats; assay: ultrasound-guided sciatic nerve block model, sensory block by hot plate method; type: in vivo, rat; details: 0.5 mL around sciatic nerve
Protocol: In order to evaluate the in-vivo analgesic effect of the drug-loaded sustained-release system, an ultrasound-guided sciatic nerve block model was used. Various sustained-release injection formulations containing ropivacaine were injected around the sciatic nerve of the right hind limb of SD rats under the guidance of ultrasound, and the nerve blocking effect was observed. The rats were anesthetized with 2% isoflurane and placed in a prone position. […] Then, the sensory and motor block of the right hind limbs of the rats were evaluated by a hot plate method and motor block 4-point method, respectively. […]
Operation with hot plate method: the rats were placed on a preheated metal surface (55±0.5° C.), which was surrounded by a cylindrical Plexiglas wall (20 cm high and 28 cm in diameter) to limit the movement of the rats. […] This time was recorded as the basic thermal latency (baseline) time of rats (tested 2 days before the beginning of the experiment), which was generally about 3-5 s, and the rats with too short or too long baseline time were excluded. In order to prevent tissue injury, if the rats still have no pain response after 20 s, the rats were taken out and the time was recorded as 20 s. […] The test data were expressed as percentage of maximum possible effect (MPE %) with the calculation formula as follows: […]

[2] = in-vitro cumulative drug release in PBS (dialysis bag, UV 263 nm); type: physicochemical; details: within 6 hours, 37° C., 100 rpm, same drug content as 2.0% system
Protocol: 1 ml of the above dispersion (suspension) was sucked with a precision syringe at 4° C. and put into a dialysis bag (molecular weight cut off: 8000-14000 Da), then the dialysis bag was put into a centrifuge tube which was equipped with 30 ml of PBS solution and placed in a 37° C. constant-temperature water-bath shaker that was vibrated at 100 rpm, samples were taken at different time. 2 ml of PBS solution was taken every time to be used as a sample supplemented with 2 mL of fresh PBS solution, the taken sample was analyzed by ultraviolet-visible spectrophotometry, the PBS solution was used as blank control, and a wavelength was detected as 263 nm. According to a standard curve of ropivacaine, the drug concentration of ropivacaine was calculated and a cumulative release curve was plotted. Three samples in each group were set for repetition. FIG. 1 is an in-vitro cumulative release curve of 2.0% R-HPCH-HA hydrogel sustained-release system represented by a 2.0% ropivacaine hydrochloride-loaded, wherein pure drugs (R) with the same drug content and an HPCH carrier (no hyaluronic acid, R-HPCH group) alone with the same drug content are used as control group. […] Thus, the injectable hydrogel drug delivery system comprising auxiliary component hyaluronic acid is benefit to the long-lasting local analgesia.

[3] = test system: human neuroblastoma cell lines (SH-SY5Y); type: cell-based; details: 24 h, 5 mM
Protocol: An in-vitro cytotoxicity test was performed on a ropivacaine-containing drug-loaded sustained-release system by using neuroblastoma cell line (SH-SY5Y) cells. Ropivacaine hydrochloride was dissolved into a PBS buffer to prepare a 10 mM ropivacaine solution, and the ropivacaine solution was diluted with a cell culture medium to prepare a cell culture medium with a concentration gradient of 0.5-5 mM in ropivacaine group; cell culture medium solutions containing HPCH2% and HA0.5% as well as a ropivacaine concentration of 10 mM were prepared at a low temperature and gelled at 37° C., and then a cell culture medium containing corresponding gel sustained-release systems and a ropivacaine concentration of 10 mM was prepared. SH-SY5Y cells were inoculated in a 96 well plate at a 10^4/mL cell density and normally cultured in a constant-temperature incubator for 24 h. Then, the above cell culture mediums containing pure drugs and drug gels were respectively added to be cultured for 24 h. The relative living cell numbers were tested by a Cell Counting Kit 8 (CCK-8) assay (FIG. 2).

cumulative release rate of ropivacaine [2]: exceeds 80%
SMILES: CCCN1CCCC[C@H]1C(=O)Nc1c(C)cccc1C [ropivacaine, ropivacaine hydrochloride]
time after which MPE value came back to the normal baseline [1]: 6 h | cell viability [3]: 37.2%

From patent US20220339100A1, “THERMOSENSITIVE MODIFIED CHITIN HYDROGEL LOCAL ANESTHETIC-LOADED SUSTAINED-RELEASE ANALGESIA SYSTEM, PREPARATION METHOD AND USE” (Wuhan University, priority 2021, published 2022)
